Reference: patent publication US6872841B2 (The University of North Carolina at Chapel Hill, priority 2002, dated 2005)
Read-outs that look alike come from different tables or passages of the source.

What was measured:
[1] = system: KB cells; experiment: Clonogenic assay; format: cell-based, human; conditions: 5 μM for 30 minutes, colonies after 12 days
Procedure: (§1) Biological Assay and Results. […] Freshly trypsinized KB cells were exposed to drug at 5, 0.5, or 0.05 μM for 30 minutes, respectively. Then, 250 or 500 cells were immediately plated and left undisturbed for 12 days. Colonies were fixed with formalin and stained with toluidine blue.

[2] = system: KB (nasopharyngeal carcinoma); experiment: Cell growth inhibition (standard SRB assay), KB; format: cell-based, human; conditions: 3 days of continuous treatment, read-out: Cell growth inhibition ED50
[3] = system: KB-7d (MRP-pleotrophic multidrug-resistant KB sub-clone); experiment: Cell growth inhibition (standard SRB assay), KB-7d; format: cell-based, human; conditions: 3 days of continuous treatment, read-out: Cell growth inhibition ED50
[4] = system: DNA topoisomerase II; experiment: In vitro topoisomerase II inhibition, plasmid relaxation/cleavage assay; format: biochemical; conditions: for Minimum concentration to detect linear DNA: DNA topoisomerase II inhibition; for Relative activity as topoisomerase II inhibitor versus standards: compared with GL-331 and etoposide
[5] = system: A549 (lung adenocarcinoma); experiment: Cell growth inhibition (standard SRB assay), A549; format: cell-based, human; conditions: 3 days of continuous treatment, read-out: Cell growth inhibition ED50
[6] = system: MCF-7 (breast adenocarcinoma); experiment: Cytotoxicity (cell killing after 30 minutes of treatment), MCF-7; conditions: kills 50% of the cells after 30 minutes of treatment
[7] = system: A549 (lung adenocarcinoma); experiment: Cytotoxicity (cell killing after 30 minutes of treatment), A549; conditions: kills 50% of the cells after 30 minutes of treatment
[8] = system: MCF-7 (breast adenocarcinoma); experiment: Cell growth inhibition (standard SRB assay), MCF-7; format: cell-based, human; conditions: 3 days of continuous treatment, read-out: Cell growth inhibition ED50
[9] = system: KB-7d (MRP-pleotrophic multidrug-resistant KB sub-clone); experiment: Cytotoxicity (cell killing after 30 minutes of treatment), KB-7d; conditions: kills 50% of the cells after 30 minutes of treatment
Procedure: as §1

[10] = system: KB (nasopharyngeal carcinoma); experiment: Cytotoxicity (cell killing after 30 minutes of treatment), KB; conditions: kills 50% of the cells after 30 minutes of treatment
Procedure: as §1

**Q.** What does the source list for “4′-O-demethyl-4β-[4″-(methyl L-tryptophan-N-carbonyl)-anilino]-4-desoxypodophyllotoxin [Compound 13]”?
**A.** % Inhibition [1]: 82%; EC50 [2]: 750 nM; EC50 [3]: < 100 nM; Minimum concentration to detect linear DNA [4]: 5 µM; Relative activity as topoisomerase II inhibitor versus standards [4]: at least as active as GL-331 and four-fold more active than etoposide

**Q.** With “4′-O-demethyl-4β-{4″-[4′″-(benzimidazol-2″″-yl)-amido]-anilino}-4-desoxypodophyllotoxin [Compound 14]” as the compound, how does the EC50 [2] read?
**A.** > 25000 nM

**Q.** For `COc1cc(C2c3cc4c(cc3C(NC(=O)[C@H](Cc3ccc(O)cc3)NC(=O)OCc3ccccc3)C3COC(=O)C23)OCO4)cc(OC)c1O` (stereo partly drawn) [Compound 10, 4′-O-demethyl-4β-[(N—CBZ-L-tyrosine-carbonyl)-amino]-4-desoxy-podophyllotoxin], which EC50 [2] is on record?
**A.** 2300 nM

**Q.** And the EC50 [3]?
**A.** 6700 nM

**Q.** What about the EC50 [5] of the same compound?
**A.** > 20000 nM

**Q.** Which “% Inhibition” value [1] does the source give for `COC(=O)[C@H](Cc1ccc(O)cc1)NC(=O)c1ccc(NC2c3cc4c(cc3C(c3cc(OC)c(O)c(OC)c3)C3C(=O)OCC23)OCO4)cc1` (stereo partly drawn) [Compound 12, 4′-O-demethyl-4β-[4″-(methyl L-tyrosine-N-carbonyl)-anilino]-4-desoxy-podophyllotoxin] here?
**A.** 99.5%

**Q.** And the “Cytotoxicity LD50” value [6]?
**A.** <3.1 µM

**Q.** What about the “Cytotoxicity LD50” value [7] of the same compound?
**A.** 12.5 µM

**Q.** What about the EC50 [2] of the same compound?
**A.** 1900 nM

**Q.** And the EC50 [3]?
**A.** 5000 nM

**Q.** What about the EC50 [8] of the same compound?
**A.** 4500 nM

**Q.** What about the “Cytotoxicity LD50” value [9] of the same compound?
**A.** <20 µM

**Q.** And the EC50 [5]?
**A.** 2400 nM

**Q.** What about the “Cytotoxicity LD50” value [10] of the same compound?
**A.** 1.7 µM

**Q.** And the “Minimum concentration to detect linear DNA” value (shortened to “Minimum concentration”) [4]?
**A.** 5 µM

**Q.** What about the “Relative activity as topoisomerase II inhibitor versus standards” value [4] of the same compound?
**A.** at least as active as GL-331 and four-fold more active than etoposide

**Q.** How did the “Cytotoxicity LD50” value [6] turn out when `COc1cc([C@@H]2c3cc4c(cc3[C@@H](O[C@@H]3O[C@@H]5CO[C@@H](C)O[C@H]5[C@H](O)[C@H]3O)[C@H]3COC(=O)[C@H]23)OCO4)cc(OC)c1O` [Etoposide] was run?
**A.** 21 µM

**Q.** What about the “Cytotoxicity LD50” value [7] of the same compound?
**A.** >50 µM

**Q.** What about the EC50 ([2]; Homo sapiens, 72 h) of the same compound?
**A.** 750 nM

**Q.** And the EC50 ([3]; Homo sapiens, KB7D, 72 h)?
**A.** > 10000 nM

**Q.** And the EC50 ([8]; Homo sapiens, MCF7, 72 h)?
**A.** > 20000 nM

**Q.** And the “Cytotoxicity LD50” value [9]?
**A.** >50 µM

**Q.** What about the EC50 ([5]; Homo sapiens, 72 h) of the same compound?
**A.** 5200 nM

**Q.** And the “Cytotoxicity LD50” value [10]?
**A.** 49.0 µM

**Q.** What about the “Minimum concentration” value [4] of the same compound?
**A.** 20 µM

**Q.** Which “% Inhibition” value [1] does the source give for `COc1cc([C@@H]2c3cc4c(cc3[C@@H](Nc3ccc([N+](=O)[O-])cc3)[C@H]3COC(=O)[C@H]23)OCO4)cc(OC)c1O` [GL-331, reference compound] here?
**A.** 46%

**Q.** And the “Cytotoxicity LD50” value [6]?
**A.** 5.3 µM

**Q.** What about the “Cytotoxicity LD50” value [7] of the same compound?
**A.** 6.6 µM

**Q.** What about the EC50 [2] of the same compound?
**A.** 300 nM

**Q.** What about the EC50 [3] of the same compound?
**A.** 1900 nM

**Q.** And the EC50 [8]?
**A.** 12000 nM

**Q.** And the “Cytotoxicity LD50” value [9]?
**A.** <50 µM

**Q.** What about the EC50 [5] of the same compound?
**A.** 700 nM

**Q.** And the “Cytotoxicity LD50” value [10]?
**A.** 9.9 µM

**Q.** What about the “Minimum concentration” value [4] of the same compound?
**A.** 5 µM
